Source: patent US10450549B2, “Aryloxyphenoxypropionate tolerance in turfrgass species and use of AAD1 as a selectable marker” (Dow AgroSciences, LLC, priority 2004, dated 2019)

How the values were obtained:
AAD1 (v1) = target: T1, AAD1 (v1) (Sphingobium herbicidovorans, UniProt Q8KSC8); assay: Colorimetric phenol detection assay of AAD1 (v1) activity (purified enzyme or E. coli extract); type: biochemical; settings: for A510, AAD1 (10x): 10 μg purified AAD1 (v1) per 0.16 ml assay; for activity of AAD1 (v1) E. coli extract on substrate: 0.5 mM substrate, 4 μl extract; for activity of purified AAD1 (v1) on substrate: 1 mM substrate, 1 or 10 μg enzyme
T1 construct: made in house; host or cells: E. coli BL-21 Star (DE3), plasmid pDAB3203

AAD2 (v1) = AAD2 (v1) (Bradyrhizobium diazoefficiens, UniProt Q89UC4); assay: Colorimetric phenol assay of AAD2 (v1) E. coli extract / partially purified enzyme; type: biochemical, Bradyrhizobium japonicum; settings: for A510 AAD2: substrate 0.5 mM, 15 min, 25 mM MOPS pH 6.8, 3 μl AAD2 extract (42 μg protein)
wt ARBTH = assay: In vitro plate test of herbicide cross resistance: wild-type Arabidopsis; type: in vivo, Arabidopsis thaliana; settings: 7 days
Procedure: (§1) The ability of AAD1 (v3) to provide resistance to other aryloxyphenoxyalkanoate herbicides in transgenic Arabidopsis was determined using a modified in vitro plate assay. Seeds from wild-type Arabidopsis thaliana as well as Arabidopsis thaliana containing the plant optimized AAD1 (v3) gene (T4 homozygous plants id=PAAD1.315.064) were sterilized by agitating for 10 min in a 50% bleach solution. These seeds were then rinsed four times with sterile water to remove the bleach.
(§2) Dose response assays utilized a nutrient media (see below) supplemented with various rates of test compounds. The test compounds were added to the heated media (55° C.) as concentrated solutions in DMSO. Control wells had the appropriate amount of DMSO without any additional compound. The final concentration of DMSO never exceeded 1% (v/v). After thorough mixing, a 6 mL aliquot of the warm media containing the appropriate concentration of compound was added to each well of a 6-well, flat bottom, polystyrene tissue culture tray (Falcon 353046, Becton Dickson and Company, Franklin Lakes, N.J.). After the media solidified, approximately 20 to 30 Arabidopsis seeds were applied on top of the solidified media and the remaining 2 mL of media was poured over the seeds. The plates were lightly agitated to disperse the seeds, covered and allowed to cool until the media had completely solidified. The plates were incubated for 7 days at 25° C. under continual fluorescent lighting (75 μE m^−2 s^−1). Nutrient Media Composition was as described in Example 2.2 and in Somerville and Orgen (1982).
(§3) Assessment of Growth Reduction. The apical portion of the Arabidopsis plants grown in the treated media was assessed visually relative to the apical portion of the plants grown in the media containing only DMSO. Values were recorded as % growth reduction. Assessments of root growth inhibition of the Arabidopsis plants grown in the treated media were achieved by carefully extracting the plants from the media and measuring the length of the root. These root lengths were then compared to the root length of the control plants to determine a % growth reduction. A minimum of five plants were assessed for each treatment. The values recorded are an average of all the plants assessed. The calculated concentration to reach 50% inhibition effect (I50) were determined for both root and shoots of wildtype and AAD1-transformed Arabidopsis. The ratios of resistant to sensitive biotypes are included in Table 19. A ratio>2 for both root and shoot measurements generally signifies significant resistance. The higher the ratio, the greater the level of resistance. […] The broad phenoxy auxin resistance is the first reported in planta.

PAAD1.315.064 ARBTH = assay: In vitro plate test of herbicide cross resistance: homozygous T4 AAD1 (v3) Arabidopsis; type: in vivo, Arabidopsis thaliana; settings: for PAAD1.315.064 ARBTH root 150 / PAAD1.315.064 T3 ARBTH shoot 150: 7 days
Procedure: as §1, §2, §3

[1] = test system: T4 Arabidopsis homozygous for AAD1 (v3) (line AAD1.01.315.076); assay: Foliar-applied auxinic herbicides on homozygous T4 AAD1 (v3) Arabidopsis, % injury 14 DAT; type: in vivo, Arabidopsis thaliana; settings: AAD1.01.315.076.T4 homozygous AAD1 plants
Procedure: (§4) The ability of AAD1 (v3) to provide resistance to other aryloxyphenoxyalkanoate auxin herbicides in transgenic Arabidopsis was determined by foliar application of various substrates described in Example 6.8. T4 generation Arabidopsis seed, homozygous for AAD1 (v3) (line AAD1.01.315.076) was stratified, and sown into selection trays much like that of Arabidopsis (Example 6.4). A transformed-control line containing PAT and the insect resistance gene Cry1F was planted in a similar manner. Seedlings were transferred to individual 3-inch pots in the greenhouse. All plants were sprayed with the use of a track sprayer set at 187 L/ha. […] All applications were formulated in 200 mM Hepes buffer (pH 7.5). Each treatment was replicated 3-4 times. Plants were evaluated at 3 and 14 days after treatment and are averaged over two experiments.

[2] = test system: transformed-control line containing PAT and Cry1F; assay: Foliar-applied auxinic herbicides on control (PAT/Cry1F, wildtype) Arabidopsis, % injury 14 DAT; type: in vivo, Arabidopsis thaliana; settings: PatCry1f - Control
Procedure: as §4

[3] = Table 4, substrate 1 mM, 1 μg purified AAD1 (v1) per 0.16 ml assay
[4] = substrate 0.5 mM, 15 min, 25 mM MOPS pH 6.8, 4 μl AAD1 (32 μg protein) extract
[5] = resistant to sensitive biotype, >2 signifies resistance

CC(Oc1ccc(Oc2ccc(C#N)cc2F)cc1)C(=O)O (racemic) [(R,S)- cyhalofop]
A510, AAD1 (AAD1 (v1); [3]): 0.215
A510, AAD1 (10x) (AAD1 (v1); Table 4, substrate 1 mM): 1.815
A510, AAD1 (AAD1 (v1); [4]): 0.12
A510 AAD2 (AAD2 (v1)): 0.1

Cc1cc(Cl)ccc1OC(C)C(=O)O (racemic) [(R,S)-mecoprop]
activity of AAD1 (v1) E. coli extract on substrate (AAD1 (v1); 15 min): cleaved
A510, AAD1 (AAD1 (v1); Table 3, substrate 1 mM, 1 μg purified AAD1 (v1) per 0.16 ml assay, 15 min): 0.341
A510, AAD1 (10x) (AAD1 (v1); Table 3, substrate 1 mM, 15 min): 2.085
wt ARBTH root 150 (wt ARBTH): 0.01 ppm
wt ARBTH shoot 150 (wt ARBTH): 2 ppm
root ratio (PAAD1.315.064 ARBTH; [5]): 150
shoot ratio (PAAD1.315.064 ARBTH; [5]): 12.5
PAAD1.315.064 ARBTH root 150 (PAAD1.315.064 ARBTH): 1.5 ppm
PAAD1.315.064 T3 ARBTH shoot 150 (PAAD1.315.064 ARBTH): 25 ppm
Ave % Injury 14DAT ([1]; 12.5 g ae/ha foliar): 3%
Ave % Injury 14DAT ([1]; 25 g ae/ha foliar): 0%
Ave % Injury 14DAT ([1]; 50 g ae/ha foliar): 0%
Ave % Injury 14DAT ([1]; 100 g ae/ha foliar): 0%
Ave % Injury 14DAT ([1]; 200 g ae/ha foliar): 3%
Ave % Injury 14DAT ([1]; 400 g ae/ha foliar): 0%
Ave % Injury 14DAT ([1]; 800 g ae/ha foliar): 0%
Ave % Injury 14DAT ([1]; 1600 g ae/ha foliar): 0%
Ave % Injury 14DAT ([2]; 12.5 g ae/ha foliar): 0%
Ave % Injury 14DAT ([2]; 25 g ae/ha foliar): 2%
Ave % Injury 14DAT ([2]; 50 g ae/ha foliar): 17%
Ave % Injury 14DAT ([2]; 100 g ae/ha foliar): 33%
Ave % Injury 14DAT ([2]; 200 g ae/ha foliar): 62%
Ave % Injury 14DAT ([2]; 400 g ae/ha foliar): 78%
Ave % Injury 14DAT ([2]; 800 g ae/ha foliar): 93%
Ave % Injury 14DAT ([2]; 1600 g ae/ha foliar): 100%

CC(Oc1ccc(Oc2ncc(C(F)(F)F)cc2Cl)cc1)C(=O)O (racemic) [haloxyfop]
A510, AAD1 (AAD1 (v1); [4]): 0.1
A510 AAD2 (AAD2 (v1)): 0.3

O=C(O)COc1cc(Cl)c(Cl)cc1Cl [2,4,5-T]
wt ARBTH root 150 (wt ARBTH): <0.01 ppm
wt ARBTH shoot 150 (wt ARBTH): 1.5 ppm
shoot ratio (PAAD1.315.064 ARBTH; [5]): 6.67
PAAD1.315.064 ARBTH root 150 (PAAD1.315.064 ARBTH): <0.01 ppm
PAAD1.315.064 T3 ARBTH shoot 150 (PAAD1.315.064 ARBTH): 10 ppm
Ave % Injury 14DAT ([1]; 8.75 g ae/ha foliar): 0%
Ave % Injury 14DAT ([1]; 17.5 g ae/ha foliar): 3%
Ave % Injury 14DAT ([1]; 35 g ae/ha foliar): 0%
Ave % Injury 14DAT ([1]; 70 g ae/ha foliar): 3%
Ave % Injury 14DAT ([1]; 140 g ae/ha foliar): 0%
Ave % Injury 14DAT ([1]; 280 g ae/ha foliar): 0%
Ave % Injury 14DAT ([1]; 560 g ae/ha foliar): 17%
Ave % Injury 14DAT ([1]; 1120 g ae/ha foliar): 3%
Ave % Injury 14DAT ([2]; 8.75 g ae/ha foliar): 0%
Ave % Injury 14DAT ([2]; 17.5 g ae/ha foliar): 20%
Ave % Injury 14DAT ([2]; 35 g ae/ha foliar): 43%
Ave % Injury 14DAT ([2]; 70 g ae/ha foliar): 85%
Ave % Injury 14DAT ([2]; 140 g ae/ha foliar): 95%
Ave % Injury 14DAT ([2]; 280 g ae/ha foliar): 98%
Ave % Injury 14DAT ([2]; 560 g ae/ha foliar): 100%
Ave % Injury 14DAT ([2]; 1120 g ae/ha foliar): 100%

O=S(=O)(O)COc1ccc(Cl)cc1Cl [2,4-D sulfonate]
phenol produced by AAD1 (v1) relative to 2,4-D (AAD1 (v1); another test): ~25%
AAD2 (v1) activity on substrate (AAD2 (v1); E. coli extract): little or no detectable phenol

C[C@@H](Oc1ccc(Oc2ccc(C#N)cc2F)cc1)C(=O)O [(R)- cyhalofop]
A510, AAD1 (AAD1 (v1); [3]): 0.222
A510, AAD1 (10x) (AAD1 (v1); Table 4, substrate 1 mM): 1.989
A510, AAD1 (AAD1 (v1); [4]): 0.14
A510 AAD2 (AAD2 (v1)): 0

C[C@@H](Oc1ccc(Oc2nc3ccc(Cl)cc3o2)cc1)C(=O)O [(R)- fenoxaprop]
A510, AAD1 (AAD1 (v1); [3]): 0.408
A510, AAD1 (10x) (AAD1 (v1); Table 4, substrate 1 mM): 0.597
A510, AAD1 (AAD1 (v1); [4]): 0.14
A510 AAD2 (AAD2 (v1)): 0

C[C@@H](Oc1ccc(Oc2cnc3cc(Cl)ccc3n2)cc1)C(=O)O [(R)- quizalofop]
A510, AAD1 (AAD1 (v1); [3]): 0.43
A510, AAD1 (10x) (AAD1 (v1); Table 4, substrate 1 mM): 2.1
kcat (AAD1 (v1); purified AAD1 (v1)): 0.315 s⁻¹
Vmax ± SE (AAD1 (v1); purified AAD1 (v1), Michaelis-Menten fit): 0.57 ± 0.03 μmol min^−1 mg^−1 AAD1
A510, AAD1 (AAD1 (v1); [4]): 0.27
A510 AAD2 (AAD2 (v1)): 0.01

C[C@H](Oc1ccc(Oc2ccc(C#N)cc2F)cc1)C(=O)O [(S)- cyhalofop]
activity of AAD1 (v1) E. coli extract on substrate (AAD1 (v1); 15 min): no activity
activity of purified AAD1 (v1) on substrate (AAD1 (v1)): Minimal activity
A510, AAD1 (AAD1 (v1); [3]): 0.003
A510, AAD1 (10x) (AAD1 (v1); Table 4, substrate 1 mM): 0.017
A510, AAD1 (AAD1 (v1); [4]): 0
A510 AAD2 (AAD2 (v1)): 0.15

CC(Oc1ccc(Oc2ncc(C(F)(F)F)cc2Cl)cc1)C(=O)O (stereo not drawn) [compound 8671]
A510, AAD1 (AAD1 (v1); [4]): 0.12
A510 AAD2 (AAD2 (v1)): 0

O=C(O)COc1ccc(Oc2ncc(C(F)(F)F)cc2Cl)cc1 [haloxyfop- oxyacetate]
activity of purified AAD1 (v1) on substrate (AAD1 (v1)): cleaved very slowly
A510, AAD1 (AAD1 (v1); [3]): 0.004
A510, AAD1 (10x) (AAD1 (v1); Table 4, substrate 1 mM): 0.053
A510, AAD1 (AAD1 (v1); [4]): 0
A510 AAD2 (AAD2 (v1)): 0.22
